Structures are written as SMILES.

One compound from PMC7486443, “Generation of Phenothiazine with Potent Anti-TLK1 Activity for Prostate Cancer Therapy” (iScience, 2020) can be followed below.

Common to all, as to assay: biochemical
What all share (set-up): DiscoverX KINOMEscan scanMAX competition binding panel, single concentration, percent of control; remaining binding: dose or concentration left out as unconfirmed
Details in all cases: KINOMEscan binding, percent of control; read-out: Table S4_SCANMAX REPORT - related to Fig. 1 / Percent Control

In test [1] the target is T1, ICK (Homo sapiens, UniProt Q9UPZ9).
T1 construct: gene CILK1
T1 sequence (Q9UPZ9 whole entry): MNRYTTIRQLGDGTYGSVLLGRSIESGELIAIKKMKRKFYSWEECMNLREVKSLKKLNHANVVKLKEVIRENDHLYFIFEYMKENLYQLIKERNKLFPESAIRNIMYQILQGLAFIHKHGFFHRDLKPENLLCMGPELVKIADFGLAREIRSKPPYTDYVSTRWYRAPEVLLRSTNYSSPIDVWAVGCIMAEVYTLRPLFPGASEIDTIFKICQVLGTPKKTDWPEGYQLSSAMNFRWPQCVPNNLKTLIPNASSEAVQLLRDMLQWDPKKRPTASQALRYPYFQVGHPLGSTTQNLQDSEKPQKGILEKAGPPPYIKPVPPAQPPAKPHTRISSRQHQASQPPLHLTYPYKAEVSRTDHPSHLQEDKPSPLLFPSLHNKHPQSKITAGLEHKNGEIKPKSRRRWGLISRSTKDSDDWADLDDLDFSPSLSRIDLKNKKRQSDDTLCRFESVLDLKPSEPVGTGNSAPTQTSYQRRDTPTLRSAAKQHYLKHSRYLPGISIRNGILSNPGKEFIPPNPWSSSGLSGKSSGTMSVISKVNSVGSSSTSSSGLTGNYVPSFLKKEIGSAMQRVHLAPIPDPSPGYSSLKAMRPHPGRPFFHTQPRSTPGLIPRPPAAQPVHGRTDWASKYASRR

In test [2] the target is MARK3 (Homo sapiens, UniProt P27448).
Chain of MARK3 (P27448 whole entry): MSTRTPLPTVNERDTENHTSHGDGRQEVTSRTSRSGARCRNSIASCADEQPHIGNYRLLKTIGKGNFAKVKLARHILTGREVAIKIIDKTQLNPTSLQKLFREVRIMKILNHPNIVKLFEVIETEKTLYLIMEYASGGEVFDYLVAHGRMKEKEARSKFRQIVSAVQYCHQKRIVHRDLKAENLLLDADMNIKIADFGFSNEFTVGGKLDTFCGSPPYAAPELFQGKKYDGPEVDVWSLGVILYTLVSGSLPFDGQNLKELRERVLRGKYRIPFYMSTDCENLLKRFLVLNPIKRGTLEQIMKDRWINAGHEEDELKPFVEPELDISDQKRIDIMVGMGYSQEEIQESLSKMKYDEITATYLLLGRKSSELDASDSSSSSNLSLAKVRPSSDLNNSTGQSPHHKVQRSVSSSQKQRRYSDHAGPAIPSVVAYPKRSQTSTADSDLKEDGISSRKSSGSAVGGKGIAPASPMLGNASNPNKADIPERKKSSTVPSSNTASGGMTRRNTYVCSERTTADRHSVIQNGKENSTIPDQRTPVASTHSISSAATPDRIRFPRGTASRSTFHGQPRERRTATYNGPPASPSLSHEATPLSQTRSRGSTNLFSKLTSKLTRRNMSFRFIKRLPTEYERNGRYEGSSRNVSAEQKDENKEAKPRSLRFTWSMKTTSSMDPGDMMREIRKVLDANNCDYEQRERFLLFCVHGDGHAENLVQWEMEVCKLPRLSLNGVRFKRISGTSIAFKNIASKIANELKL
Test [3] has as its target SBK1 (Homo sapiens, UniProt Q52WX2).
In test [4] the target is CAMK2D (Homo sapiens, UniProt Q13557).
Chain of CAMK2D (Q13557 whole entry): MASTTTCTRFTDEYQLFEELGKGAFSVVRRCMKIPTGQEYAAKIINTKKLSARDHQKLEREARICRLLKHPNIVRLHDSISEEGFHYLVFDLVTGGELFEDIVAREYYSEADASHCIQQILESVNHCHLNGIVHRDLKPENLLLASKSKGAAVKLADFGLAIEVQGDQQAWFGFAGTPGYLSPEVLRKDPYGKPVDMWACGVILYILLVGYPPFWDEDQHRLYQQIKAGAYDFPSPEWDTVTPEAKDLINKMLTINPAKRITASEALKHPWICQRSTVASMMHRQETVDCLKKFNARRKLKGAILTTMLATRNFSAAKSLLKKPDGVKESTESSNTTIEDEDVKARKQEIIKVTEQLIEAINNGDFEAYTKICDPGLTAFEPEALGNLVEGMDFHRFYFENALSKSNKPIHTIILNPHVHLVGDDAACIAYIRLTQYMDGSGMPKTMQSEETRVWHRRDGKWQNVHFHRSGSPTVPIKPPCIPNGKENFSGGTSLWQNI
Test [5] has as its target TYRO3 (Homo sapiens, UniProt Q06418).
In test [6] the target is CAMK1D (Homo sapiens, UniProt Q8IU85).
Chain of CAMK1D (Q8IU85 whole entry): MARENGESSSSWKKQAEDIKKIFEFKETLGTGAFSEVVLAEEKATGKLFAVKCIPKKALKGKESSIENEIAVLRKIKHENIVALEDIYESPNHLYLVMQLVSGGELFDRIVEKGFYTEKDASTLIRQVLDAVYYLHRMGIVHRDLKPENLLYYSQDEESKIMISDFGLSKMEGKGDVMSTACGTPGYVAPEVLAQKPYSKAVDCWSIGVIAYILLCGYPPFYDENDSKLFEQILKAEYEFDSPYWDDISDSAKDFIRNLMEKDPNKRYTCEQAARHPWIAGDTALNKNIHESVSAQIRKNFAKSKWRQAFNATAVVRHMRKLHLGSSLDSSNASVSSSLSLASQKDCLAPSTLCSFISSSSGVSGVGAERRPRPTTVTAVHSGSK
Test [7] has as its target T2, ERK5 (Homo sapiens, UniProt Q13164).
T2 construct: gene MAPK7

In test [8] the target is FLT3(D835H) (Homo sapiens, UniProt P36888, D835H).
Test [9] has as its target MAPKAPK5 (Homo sapiens, UniProt Q8IW41).
Test [10] deals with ITK (Homo sapiens, UniProt Q08881).
Chain of ITK (Q08881 whole entry): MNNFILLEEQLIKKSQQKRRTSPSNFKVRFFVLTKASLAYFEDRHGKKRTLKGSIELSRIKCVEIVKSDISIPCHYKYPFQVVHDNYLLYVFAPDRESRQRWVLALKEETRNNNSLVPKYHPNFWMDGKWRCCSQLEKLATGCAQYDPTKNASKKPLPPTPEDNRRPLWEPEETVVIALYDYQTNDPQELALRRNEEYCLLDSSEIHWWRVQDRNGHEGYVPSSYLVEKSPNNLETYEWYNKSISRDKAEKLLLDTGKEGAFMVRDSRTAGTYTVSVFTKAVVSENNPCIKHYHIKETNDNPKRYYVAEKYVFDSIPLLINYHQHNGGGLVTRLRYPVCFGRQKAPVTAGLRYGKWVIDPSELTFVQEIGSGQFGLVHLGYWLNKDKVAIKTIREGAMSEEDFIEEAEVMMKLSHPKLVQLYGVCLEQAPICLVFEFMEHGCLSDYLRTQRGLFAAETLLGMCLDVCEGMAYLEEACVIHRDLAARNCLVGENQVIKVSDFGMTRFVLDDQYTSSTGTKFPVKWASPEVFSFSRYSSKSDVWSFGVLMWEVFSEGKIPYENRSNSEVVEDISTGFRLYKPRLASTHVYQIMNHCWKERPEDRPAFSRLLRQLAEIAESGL
For test [11], the target named is T3, TYK2(JH1domain-catalytic) (Homo sapiens, UniProt P29597).
T3 construct: JH1domain-catalytic

The target in test [12] is AURKA (Homo sapiens, UniProt O14965).
Test [13] deals with T4, DLK (Homo sapiens, UniProt Q12852).
T4 construct: gene MAP3K12

In test [14] the target is CDKL2 (Homo sapiens, UniProt Q92772).
Chain of CDKL2 (Q92772 whole entry): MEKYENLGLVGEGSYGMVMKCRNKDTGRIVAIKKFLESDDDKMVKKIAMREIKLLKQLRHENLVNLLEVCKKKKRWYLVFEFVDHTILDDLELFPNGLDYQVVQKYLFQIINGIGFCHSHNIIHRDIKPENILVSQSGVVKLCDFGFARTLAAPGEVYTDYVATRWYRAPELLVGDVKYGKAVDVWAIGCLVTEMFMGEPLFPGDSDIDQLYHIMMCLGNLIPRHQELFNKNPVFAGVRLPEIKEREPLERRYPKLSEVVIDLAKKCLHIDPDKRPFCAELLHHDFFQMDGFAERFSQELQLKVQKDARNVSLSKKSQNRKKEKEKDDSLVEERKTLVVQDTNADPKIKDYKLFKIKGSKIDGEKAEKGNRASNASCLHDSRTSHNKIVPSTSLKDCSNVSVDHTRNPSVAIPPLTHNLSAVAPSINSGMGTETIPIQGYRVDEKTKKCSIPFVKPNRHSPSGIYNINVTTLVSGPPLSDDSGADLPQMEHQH
In test [15] the target is EGFR(L747-T751del,Sins) (Homo sapiens, UniProt P00533, DEL747-750/T751S).
Chain of EGFR(L747-T751del,Sins) (P00533 with tags, fused parts or gaps DEL747-750/T751S): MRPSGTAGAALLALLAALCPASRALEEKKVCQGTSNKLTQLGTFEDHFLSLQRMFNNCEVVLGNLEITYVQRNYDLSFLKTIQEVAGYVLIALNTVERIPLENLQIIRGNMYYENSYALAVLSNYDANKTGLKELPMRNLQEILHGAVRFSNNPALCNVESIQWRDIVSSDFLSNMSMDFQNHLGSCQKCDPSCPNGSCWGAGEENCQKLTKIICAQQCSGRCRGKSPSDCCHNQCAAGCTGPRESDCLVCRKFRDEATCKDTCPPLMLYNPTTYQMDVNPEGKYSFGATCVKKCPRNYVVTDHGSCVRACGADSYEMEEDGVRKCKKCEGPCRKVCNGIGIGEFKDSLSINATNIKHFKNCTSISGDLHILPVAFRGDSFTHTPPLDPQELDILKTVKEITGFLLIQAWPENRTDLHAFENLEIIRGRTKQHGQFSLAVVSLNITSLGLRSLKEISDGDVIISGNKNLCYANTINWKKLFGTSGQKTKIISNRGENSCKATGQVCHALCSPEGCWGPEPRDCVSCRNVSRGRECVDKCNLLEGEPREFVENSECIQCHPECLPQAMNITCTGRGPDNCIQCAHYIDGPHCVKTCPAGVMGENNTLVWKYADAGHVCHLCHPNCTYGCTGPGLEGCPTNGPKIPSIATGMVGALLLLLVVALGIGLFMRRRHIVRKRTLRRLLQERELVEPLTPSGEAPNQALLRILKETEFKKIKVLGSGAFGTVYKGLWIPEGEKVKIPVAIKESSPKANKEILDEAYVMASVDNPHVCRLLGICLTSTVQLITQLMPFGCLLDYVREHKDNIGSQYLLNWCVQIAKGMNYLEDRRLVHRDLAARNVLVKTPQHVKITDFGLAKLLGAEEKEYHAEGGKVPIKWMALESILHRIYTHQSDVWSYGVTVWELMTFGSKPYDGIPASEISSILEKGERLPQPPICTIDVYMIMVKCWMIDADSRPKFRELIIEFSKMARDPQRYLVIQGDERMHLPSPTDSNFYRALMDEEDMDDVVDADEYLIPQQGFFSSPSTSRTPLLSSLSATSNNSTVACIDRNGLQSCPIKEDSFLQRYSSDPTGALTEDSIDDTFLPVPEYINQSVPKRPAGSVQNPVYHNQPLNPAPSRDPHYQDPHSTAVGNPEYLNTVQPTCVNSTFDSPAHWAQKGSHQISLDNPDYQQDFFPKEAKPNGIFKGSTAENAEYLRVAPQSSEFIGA
Test [16] deals with T5, JAK1(JH2domain-pseudokinase) (Homo sapiens, UniProt P23458).
T5 construct: JH2domain-pseudokinase

Test [17] has as its target ACVR2A (Homo sapiens, UniProt P27037).
For test [18], the target named is FGFR1 (Homo sapiens, UniProt P11362).

Chain of SBK1 (Q52WX2 whole entry): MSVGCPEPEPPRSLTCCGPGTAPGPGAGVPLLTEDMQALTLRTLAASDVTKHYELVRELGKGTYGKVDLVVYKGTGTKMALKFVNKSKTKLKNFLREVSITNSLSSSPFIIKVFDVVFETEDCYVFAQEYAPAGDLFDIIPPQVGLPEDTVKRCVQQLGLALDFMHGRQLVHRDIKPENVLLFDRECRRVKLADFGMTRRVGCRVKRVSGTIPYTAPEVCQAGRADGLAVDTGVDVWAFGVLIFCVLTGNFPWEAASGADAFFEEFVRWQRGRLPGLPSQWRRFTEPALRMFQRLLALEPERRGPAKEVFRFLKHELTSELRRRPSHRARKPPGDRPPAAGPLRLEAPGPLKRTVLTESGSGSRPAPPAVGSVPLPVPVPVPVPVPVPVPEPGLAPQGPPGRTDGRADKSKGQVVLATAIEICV

As to `c1ccc2c(c1)Sc1ccccc1N2CCN1CCOCC1` [J54], the remaining binding in [1] was 100%; in test [2] it was 100%; in [3], 93%; in test [4] it was 100%; in test [5], 100%; in test [6], 85%. The remaining binding in test [7], in [8], in [9], in test [10], in [11] and in test [12] was 100% in each case. The remaining binding was 100% in [13]; 100% in test [14]; 92% in test [15]; 99% in [16]; 86% in [17]; 94% in test [18].
